38 compounds from BindingDB's records for doi:10.7270/Q2PZ576Z (The Scripps Research Institute Molecular Screening Center, 2007) can be followed below.

This experiment deals with Sphingosine 1-phosphate receptor 3 (Homo sapiens, UniProt Q99500). Kind of experiment: S1P3 receptor activation, EC50 – cell-based, NFAT-BLA reporter, dose response (AID 439).
The mark [1] stands for this setting: inactive by the depositor's call.

The structures appear in SMILES notation. Bounds are passed on as bounds.

Sphingosine 1-phosphate receptor 3, sequence (Q99500 whole entry): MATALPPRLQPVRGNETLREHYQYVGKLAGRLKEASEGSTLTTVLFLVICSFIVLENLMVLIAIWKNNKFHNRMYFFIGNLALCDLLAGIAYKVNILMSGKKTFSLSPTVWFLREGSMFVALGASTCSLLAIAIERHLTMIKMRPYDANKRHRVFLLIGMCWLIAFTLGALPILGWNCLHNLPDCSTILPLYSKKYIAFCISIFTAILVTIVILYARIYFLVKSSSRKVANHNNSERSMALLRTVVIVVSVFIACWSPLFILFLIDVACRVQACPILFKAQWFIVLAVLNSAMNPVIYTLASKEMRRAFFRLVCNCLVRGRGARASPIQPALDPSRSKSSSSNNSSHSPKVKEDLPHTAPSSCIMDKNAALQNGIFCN

Turning to `Cc1cccn2c(=O)c3cc(C(=O)NC(C)c4ccccc4)c(=N)n(CCCn4ccnc4)c3nc12` (stereo not drawn) [1-(3-imidazol-1-ylpropyl)-2-imino-10-methyl-5-oxo-N-(1-phenylethyl)dipyrido[3,4-c:1',2'-f]pyrimidine-3-carboxamide], the EC50 under setting [1] is 17.4 µM.
Turning to `CCCc1cc(C(=O)N(C2CCCCC2)C2CCCCC2)no1` [MLS000116372], the EC50 worked out at 2.7 µM.
Turning to `Cc1cc(-n2c(=O)c(C#N)cc3c(=O)n4ccccc4nc32)no1`, under setting [1], the midpoint of the response, the EC50, lay at 26.4 µM.
Consider `CCCn1c(=O)c2ccccc2n2c(SCc3c(C(=O)OCC)oc4ccccc34)nnc12` [3-[[(5-keto-4-propyl-[1,2,4]triazolo[4,3-a]quinazolin-1-yl)thio]methyl]coumarilic acid ethyl ester], for which the EC50 under setting [1] stood at 23.5 µM.
Regarding `c1ccc(-c2nc3nonc3nc2-c2ccccc2)cc1` [5,6-diphenyl-[1,2,5]oxadiazolo[3,4-b]pyrazine], the EC50 under setting [1] was 41.6 µM.
For the compound `CCCCn1c(NC(=O)c2ccc(F)cc2)c(C#N)c2nc3ccccc3nc21` [MLS000055622], the EC50 was over 45 µM.
In turn, `c1ccc(-c2nnc(N3CCOCC3)nc2-c2ccccc2)cc1` [4-(5,6-diphenyl-1,2,4-triazin-3-yl)morpholine] yielded an EC50 of 6.63 µM.
On to `Nc1c(C(=O)NCCc2ccccc2)c2nc3ccccc3nc2n1CCN1CCOCC1` [2-amino-1-(2-morpholin-4-ylethyl)-N-(2-phenylethyl)pyrrolo[3,2-b]quinoxaline-3-carboxamide], for which a half-maximal effect under setting [1] (EC50) was put at 37.5 µM.
The compound `Clc1ccc2nc(N3CCNCC3)nc(-c3ccccc3)c2c1` came in with an EC50 of over 45 µM.
Compound `CCOc1ccc(-c2nc(-c3ccncc3)no2)cc1OCC` [4-[5-(3,4-diethoxyphenyl)-1,2,4-oxadiazol-3-yl]pyridine] displayed an EC50 of 2.77 µM.
`Cc1ccc(-n2c(=O)[nH]cc(C(=O)Nc3ccc4c(c3)OCCO4)c2=O)cc1C` [N-(2,3-dihydro-1,4-benzodioxin-6-yl)-3-(3,4-dimethylphenyl)-2,4-bis(oxidanylidene)-1H-pyrimidine-5-carboxamide] came in with an EC50 of over 45 µM.
Consider `COCCCn1c(N)c(C(=O)NCCC(C)C)c2nc3ccccc3nc21` [MLS000041744], for which, under setting [1], a half-maximal effect (EC50) was put at 31.4 µM.
The same measure, in the same setting: under `OCCN1CCN(c2nc(-c3ccccc3)c3cc(Cl)ccc3n2)CC1` [2-[4-(6-chloranyl-4-phenyl-quinazolin-2-yl)piperazin-1-yl]ethanol] stands 108 µM; under `Cc1ccc(NC(=O)CC2Nc3ccccc3NC2=O)cc1Cl` (stereo not drawn) [N-(3-chloranyl-4-methyl-phenyl)-2-(3-oxidanylidene-2,4-dihydro-1H-quinoxalin-2-yl)ethanamide], 80.8 µM; under `O=c1c2ccccc2nnn1CSc1nnc(C2COc3ccccc3O2)n1-c1ccccc1` (stereo not drawn) [3-[[5-(2,3-dihydro-1,4-benzodioxin-3-yl)-4-phenyl-1,2,4-triazol-3-yl]sulfanylmethyl]-1,2,3-benzotriazin-4-one], 29.5 µM.
The same measure, in the same setting: under `COc1ccc(CCn2c(C)cc(C(=O)CSc3nnnn3C)c2C)cc1` [1-[1-[2-(4-methoxyphenyl)ethyl]-2,5-dimethyl-3-pyrrolyl]-2-[(1-methyl-5-tetrazolyl)thio]ethanone] stands 18.6 µM.
Consider `CCCCC(=O)NC(Nc1nc(C2CC2)cs1)(C(=O)OCC)C(F)(F)F` (stereo not drawn) [2-[(4-cyclopropyl-2-thiazolyl)amino]-3,3,3-trifluoro-2-(1-oxopentylamino)propanoic acid ethyl ester], for which the EC50 is 9.87 µM.
`Cc1ccc(-c2cc(-c3ccc(Cl)cc3)c(C#N)c(N)n2)o1` [2-azanyl-4-(4-chlorophenyl)-6-(5-methylfuran-2-yl)pyridine-3-carbonitrile]: the EC50 is over 45 µM.
Turning to `CCCN(CCC)CCCNC(=O)CC1Nc2ccccc2NC1=O` (stereo not drawn) [MLS000046817], the EC50 is over 45 µM.
As for `O=C(Oc1ccc(-c2nnco2)cc1)N(c1ccccc1)c1ccccc1` [4-(1,3,4-oxadiazol-2-yl)phenyl diphenylcarbamate], it took 14.1 µM to reach a half-maximal effect under setting [1] (EC50).
Under setting [1], `C/C(Cl)=C/Cn1c(N2CCCC2)nc2c1c(=O)n(C)c(=O)n2C` [7-((Z)-3-Chloro-but-2-enyl)-1,3-dimethyl-8-pyrrolidin-1-yl-3,7-dihydro-purine-2,6-dione] had an EC50 of 38.5 µM.
Regarding `c1ccc(C(Cc2nc(-c3ccccn3)no2)c2ccccc2)cc1` [5-(2,2-diphenylethyl)-3-(2-pyridinyl)-1,2,4-oxadiazole], it took 21.1 µM to reach a half-maximal effect under setting [1] (EC50).
For `Cc1ccc(C(C)C)c(OCc2nc(-c3nonc3N)no2)c1` [4-[5-[(5-methyl-2-propan-2-yl-phenoxy)methyl]-1,2,4-oxadiazol-3-yl]-1,2,5-oxadiazol-3-amine], the midpoint of the response under setting [1], the EC50, lay at 74.6 µM.
Regarding `Cc1cc(C)n(-c2nc(NCc3cccnc3)c3c4c(sc3n2)COC(C)(C)C4)n1` [2-(3,5-dimethyl-1-pyrazolyl)-6,6-dimethyl-N-(3-pyridinylmethyl)-5,8-dihydropyrano[4,5]thieno[1,2-c]pyrimidin-4-amine], the EC50 under setting [1] came to 15.3 µM.
`Cc1cc(C)n(-c2nc(NCCCO)c3c4c(sc3n2)CCCC4)n1` [3-[[2-(3,5-dimethyl-1-pyrazolyl)-5,6,7,8-tetrahydro-[1]benzothiolo[2,3-d]pyrimidin-4-yl]amino]-1-propanol] returned an EC50 of 4.28 µM.
Regarding `Cc1ccc2nc3c(cc(C#N)c(=O)n3-c3nccs3)c(=O)n2c1` [SMR000047276], the EC50 was over 45 µM.
Consider `Cc1cc(C(=O)N(C2CCCCC2)C2CCCCC2)no1` [MLS000087301], for which a half-maximal effect (EC50) was put at 25.6 µM.
Consider `C=CCn1c(=O)c(C#N)cc2c(=O)n3ccccc3nc21` [SMR000029848], for which the EC50 is over 45 µM.
On to `Cc1cc(NC(=O)NC(=O)c2cccc(OC(F)(F)C(F)F)c2)[nH]n1`, for which the EC50 was over 45 µM.
With `Cc1nc(-c2ccccc2)cc(N2CCCC2)n1` [2-methyl-4-phenyl-6-(1-pyrrolidinyl)pyrimidine], the EC50 was over 45 µM.
`Nc1c(C(=O)NCc2ccco2)c2nc3ccccc3nc2n1CCN1CCCCC1` [2-amino-N-(2-furanylmethyl)-1-[2-(1-piperidinyl)ethyl]-3-pyrrolo[3,2-b]quinoxalinecarboxamide] had an EC50 of over 45 µM.
The compound `CCSc1nc(N2CCOCC2)c2c(c1C#N)CCCC2` [3-(ethylthio)-1-(4-morpholinyl)-5,6,7,8-tetrahydroisoquinoline-4-carbonitrile] yielded an EC50 under setting [1] of 14.5 µM.
The compound `CCOC(=O)c1cc2ccc(OC(=O)c3ccco3)cc2oc1=O` [ethyl 7-(2-furoyloxy)-2-oxo-2H-chromene-3-carboxylate] gave an EC50 of 7.18 µM.
`COc1ccc(Cn2c(N)c(C(=O)NCc3ccco3)c3nc4ccccc4nc32)cc1` [2-amino-N-(2-furanylmethyl)-1-[(4-methoxyphenyl)methyl]-3-pyrrolo[3,2-b]quinoxalinecarboxamide] yielded an EC50 under setting [1] of 19.8 µM.
Under setting [1], `CCOc1ccc(-c2noc(-c3ccncc3)n2)cc1OCC` [3-(3,4-diethoxyphenyl)-5-(4-pyridyl)-1,2,4-oxadiazole] registered an EC50 of 11.6 µM.
The same measure, in the same setting: under `Nc1c(C(=O)NC2CCCC2)c2nc3ccccc3nc2n1CC1CCCO1` (stereo not drawn) [MLS000080255] stands 14.7 µM; under `Cc1cccc2cc3c(NC(=O)c4ccccn4)nn(C)c3nc12` [MLS000082760], 127 µM; under `COc1ccc(CCn2c(N)c(C(=O)NCc3ccco3)c3nc4ccccc4nc32)cc1OC` [2-amino-1-[2-(3,4-dimethoxyphenyl)ethyl]-N-(2-furanylmethyl)-3-pyrrolo[3,2-b]quinoxalinecarboxamide], 45 µM.

By EC50 is commonly meant the midpoint of the concentration-response curve.
